These results are taken from patent US10758534B2 (Vertex Pharmaceuticals Incorporated, priority 2014, dated 2020).

The structures appear in SMILES notation.

The target in this assay is T1, F508del (Homo sapiens, UniProt P13569, DEL508-508).
T1 construct: expressed in transfected cells
Kind of assay: Protocol 1: membrane potential optical assay (FLIPR III, voltage sensing dye), identification of potentiator compounds. In kind it is cell-based. The settings on record: Table 3, compounds of Table 1. Summed up: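 Read-out: change in voltage-sensing dye fluorescence (FLIPR III) as a measure of F508del conductance. Temperature-corrected (27° C, 24 hrs) NIH 3T3 cells expressing F508del are pretreated with potentiators, dye-loaded, then stimulated with forskolin under a chloride ion gradient using chloride-free gluconate bath.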

T1 sequence (P13569 with tags, fused parts or gaps DEL508-508): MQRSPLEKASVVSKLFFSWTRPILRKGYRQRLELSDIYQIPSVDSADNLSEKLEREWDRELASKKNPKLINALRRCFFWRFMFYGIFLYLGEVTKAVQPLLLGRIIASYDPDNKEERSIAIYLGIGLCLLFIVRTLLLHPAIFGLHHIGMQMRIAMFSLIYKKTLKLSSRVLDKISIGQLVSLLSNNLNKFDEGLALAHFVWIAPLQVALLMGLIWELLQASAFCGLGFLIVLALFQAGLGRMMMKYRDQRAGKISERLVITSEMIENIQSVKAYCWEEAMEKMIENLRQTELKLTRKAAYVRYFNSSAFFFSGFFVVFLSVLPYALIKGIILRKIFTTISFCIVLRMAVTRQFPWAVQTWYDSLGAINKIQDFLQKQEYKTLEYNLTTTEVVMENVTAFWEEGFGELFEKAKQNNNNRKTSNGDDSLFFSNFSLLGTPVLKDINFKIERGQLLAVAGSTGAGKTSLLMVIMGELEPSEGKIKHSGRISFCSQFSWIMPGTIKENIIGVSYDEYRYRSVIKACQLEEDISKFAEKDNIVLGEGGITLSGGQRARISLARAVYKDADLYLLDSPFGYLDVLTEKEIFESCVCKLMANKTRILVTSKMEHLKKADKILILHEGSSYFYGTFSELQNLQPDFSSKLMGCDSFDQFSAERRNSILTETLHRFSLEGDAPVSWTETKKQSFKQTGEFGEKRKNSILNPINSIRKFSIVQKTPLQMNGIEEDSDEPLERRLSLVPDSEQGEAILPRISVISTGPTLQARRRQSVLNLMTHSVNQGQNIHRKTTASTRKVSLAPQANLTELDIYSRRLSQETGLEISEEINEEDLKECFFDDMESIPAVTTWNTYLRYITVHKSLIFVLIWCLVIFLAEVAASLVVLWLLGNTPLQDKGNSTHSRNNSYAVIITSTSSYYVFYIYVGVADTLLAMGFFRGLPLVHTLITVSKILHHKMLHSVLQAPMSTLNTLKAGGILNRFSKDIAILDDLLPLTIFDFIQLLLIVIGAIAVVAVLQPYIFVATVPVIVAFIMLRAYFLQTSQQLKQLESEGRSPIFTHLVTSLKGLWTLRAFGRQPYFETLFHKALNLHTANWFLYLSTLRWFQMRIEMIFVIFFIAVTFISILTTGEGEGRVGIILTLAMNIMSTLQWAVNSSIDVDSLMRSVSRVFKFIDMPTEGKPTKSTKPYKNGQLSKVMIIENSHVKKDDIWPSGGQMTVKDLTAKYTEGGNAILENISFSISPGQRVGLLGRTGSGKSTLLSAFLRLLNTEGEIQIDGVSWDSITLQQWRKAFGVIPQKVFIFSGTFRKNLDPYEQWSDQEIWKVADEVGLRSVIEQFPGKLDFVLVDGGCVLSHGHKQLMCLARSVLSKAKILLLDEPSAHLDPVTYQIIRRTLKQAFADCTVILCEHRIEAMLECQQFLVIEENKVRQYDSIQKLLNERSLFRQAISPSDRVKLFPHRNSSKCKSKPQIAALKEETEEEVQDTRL

`COCC1CCN(c2nc(C(C)(C)C)ccc2C(=O)NS(=O)(=O)c2cccc(N)n2)CC1` [Compound 986, N-[(6-amino-2-pyridyl)sulfonyl]-6-tert-butyl-2-[4-(methoxymethyl)-1-piperidyl]pyridine-3-carboxamide]: the EC30 result is “++ (“++” means between 3 uM and 10 uM)”.

Turning to `Cc1cc(C)c(Oc2nc(C(C)C(C)C)ccc2C(=O)NS(=O)(=O)c2cccc(N)n2)c(C)c1` (stereo not shown) [Compound 1486, N-[(6-amino-2-pyridyl)sulfonyl]-6-(1,2-dimethylpropyl)-2-(2,4,6-trimethylphenoxy)pyridine-3-carboxamide], the EC30 result is “+++ (“+++” means <3 uM)”.

In the case of `CC(C)COc1cc(F)cc(-c2ccc(C(=O)NS(=O)(=O)c3cccc(N)n3)c(N3CCCC34CCC4)n2)c1` [Compound 845, N-[(6-amino-2-pyridyl)sulfonyl]-2-(8-azaspiro[3.4]octan-8-yl)-6-(3-fluoro-5-isobutoxy-phenyl)pyridine-3-carboxamide], the EC30 result is “+++ (“+++” means <3 uM)”.

For `CC(C)COc1cc(F)cc(-c2ccc(C(=O)NS(=O)(=O)c3cccc(N)n3)c(N3CC(C)CC34CC4)n2)c1` (stereo not shown) [Compound 1754, N-[(6-amino-2-pyridyl)sulfonyl]-6-(3-fluoro-5-isobutoxy-phenyl)-2-(5-methyl-7-azaspiro[2.4]heptan-7-yl)pyridine-3-carboxamide], the EC30 result is reported as “+++ (“+++” means <3 uM)”.

Regarding `CC(C)COc1cc(F)cc(-c2ccc(C(=O)NS(=O)(=O)c3cccc(N)n3)c(N3CC4CC(C4)C3)n2)c1` [Compound 1529, N-[(6-amino-2-pyridyl)sulfonyl]-2-(3-azabicyclo[3.1.1]heptan-3-yl)-6-(3-fluoro-5-isobutoxy-phenyl)pyridine-3-carboxamide], the EC30 result is recorded as “+++ (“+++” means <3 uM)”.

Regarding `C/C=C/COc1cccc(S(=O)(=O)NC(=O)c2cccnc2N2CC(C)CC2(C)C)n1` (stereo not shown) [Compound 1881, N—[[6-[(E)-but-2-enoxy]-2-pyridyl]sulfonyl]-2-(2,2,4-trimethylpyrrolidin-1-yl)pyridine-3-carboxamide], the EC30 entry was “+++ (“+++” means <3 uM)”.

Take `Cc1cc(C)c(Oc2nc(C3=CCNCC3)ccc2C(=O)NS(=O)(=O)c2cccc(N)n2)c(C)c1` [Compound 1643, N-[(6-amino-2-pyridyl)sulfonyl]-6-(1,2,3,6-tetrahydropyridin-4-yl)-2-(2,4,6-trimethylphenoxy)pyridine-3-carboxamide]: the EC30 result is “++ (“++” means between 3 uM and 10 uM)”.

For the compound `CC(C)Oc1ccc(-c2ccc(C(=O)NS(=O)(=O)c3cccc(N)n3)c(N3C[C@H](C)C[C@H](C)C3)n2)cn1` [Compound 1145, N-[(6-amino-2-pyridyl)sulfonyl]-2-[(3R,5S)-3,5-dimethyl-1-piperidyl]-6-(6-isopropoxy-3-pyridyl)pyridine-3-carboxamide], the EC30 entry was “+++ (“+++” means <3 uM)”.

Regarding `Cc1cc(C)c(Oc2nc(C(C)(C)C)ccc2C(=O)N=S(N)(=O)c2cccc(N)n2)c(C)c1` (stereo not shown) [Compound 1481, N-[amino-(6-amino-2-pyridyl)-oxo-$1^6-sulfanylidene]-6-tert-butyl-2-(2,4,6-trimethylphenoxy)pyridine-3-carboxamide], the EC30 result was “+++ (“+++” means <3 uM)”.

Turning to `CC(C)Oc1ccc(-c2ccc(C(=O)NS(=O)(=O)c3cccc(N)n3)c(N3C[C@H]4CC[C@@H]3C4)n2)cn1` [Compound 921, N-[(6-amino-2-pyridyl)sulfonyl]-2-[(1S,4R)-3-azabicyclo[2.2.1]heptan-3-yl]-6-(6-isopropoxy-3-pyridyl)pyridine-3-carboxamide], the EC30 result was “++ (“++” means between 3 uM and 10 uM)”.

Regarding `COc1cccc(-c2ccc(C(=O)NS(=O)(=O)c3cccc(N)n3)c(Oc3c(C)cc(C)cc3C)n2)n1` [Compound 1034, N-[(6-amino-2-pyridyl)sulfonyl]-6-(6-methoxy-2-pyridyl)-2-(2,4,6-trimethylphenoxy)pyridine-3-carboxamide], the EC30 result is listed as “+++ (“+++” means <3 uM)”.

For the compound `CC(C)COc1cc(F)cc(-c2ccc(C(=O)NS(=O)(=O)c3cccc(N)n3)c(OCCc3ccccc3)n2)c1` [Compound 1426, N-[(6-amino-2-pyridyl)sulfonyl]-6-(3-fluoro-5-isobutoxy-phenyl)-2-phenethyloxy-pyridine-3-carboxamide], the EC30 result was “+++ (“+++” means <3 uM)”.

`COc1ccc(F)c(-c2ccc(C(=O)NS(=O)(=O)c3cccc(N)n3)c(Oc3c(C)cc(C)cc3C)n2)c1` [Compound 1178, N-[(6-amino-2-pyridyl)sulfonyl]-6-(2-fluoro-5-methoxy-phenyl)-2-(2,4,6-trimethylphenoxy)pyridine-3-carboxamide]: the EC30 result is on record as “+++ (“+++” means <3 uM)”.

As for `CC(C)COc1cc(F)cc(-c2ccc(C(=O)NS(=O)(=O)c3cccc(N)n3)c(C3=CC(C)(C)CC3(C)C)n2)c1` [Compound 1502, N-[(6-amino-2-pyridyl)sulfonyl]-6-(3-fluoro-5-isobutoxy-phenyl)-2-(3,3,5,5-tetramethylcyclopenten-1-yl)pyridine-3-carboxamide], the EC30 result is on record as “+++ (“+++” means <3 uM)”.

As to `Cc1ccc(-c2nc3c(cc2C(=O)NS(=O)(=O)c2ccn[nH]2)CCCC3(C)C)cc1` [Compound 1292, 8,8-dimethyl-2-(p-tolyl)-N-(1H-pyrazol-5-ylsulfonyl)-6,7-dihydro-5H-quinoline-3-carboxamide], the EC30 result was “+ (“+” means greater than 10 uM)”.

As to `Cc1cc(C)c(Oc2nc(-c3cccc(C#N)c3)ccc2C(=O)NS(=O)(=O)c2cccc(N)n2)c(C)c1` [Compound 886, N-[(6-amino-2-pyridyl)sulfonyl]-6-(3-cyanophenyl)-2-(2,4,6-trimethylphenoxy)pyridine-3-carboxamide], the EC30 entry is listed as “+++ (“+++” means <3 uM)”.

For `Cc1cc(C)c(Oc2nc(C3(C)CC3)ccc2C(=O)NS(=O)(=O)c2cccc(N)c2)c(C)c1` [Compound 826, N-(3-aminophenyl)sulfonyl-6-(1-methylcyclopropyl)-2-(2,4,6-trimethylphenoxy)pyridine-3-carboxamide], the EC30 result was “+++ (“+++” means <3 uM)”.

For the compound `CC(C)Oc1ccc(-c2ccc(C(=O)NS(=O)(=O)c3cccnc3N)c(N3C[C@H](C)CC3(C)C)n2)cn1` [Compound 1240, N-[(2-amino-3-pyridyl)sulfonyl]-6-(6-isopropoxy-3-pyridyl)-2-[(4R)-2,2,4-trimethylpyrrolidin-1-yl]pyridine-3-carboxamide], the EC30 result was “+++ (“+++” means <3 uM)”.

Consider `COc1ncccc1S(=O)(=O)NC(=O)C1CCc2ccccc2CN1Cc1c(C)cc(C)cc1C` (stereo not shown) [Compound 1342, N-[(2-methoxy-3-pyridyl)sulfonyl]-2-[(2,4,6-trimethylphenyl)methyl]-1,3,4,5-tetrahydro-2-benzazepine-3-carboxamide], for which the EC30 result is given as “+++ (“+++” means <3 uM)”.

Consider `CC(C)COc1cc(F)cc(-c2nc(N3C[C@H](C)CC3(C)C)ccc2C(=O)NS(=O)(=O)c2cccc(N)n2)c1` [Compound 1385, N-[(6-amino-2-pyridyl)sulfonyl]-2-(3-fluoro-5-isobutoxy-phenyl)-6-[(4R)-2,2,4-trimethylpyrrolidin-1-yl]pyridine-3-carboxamide], for which the EC30 result is on record as “+++ (“+++” means <3 uM)”.

For `CC(C)(C)c1ccc(C(=O)NS(=O)(=O)c2cccc(N)n2)c(Oc2ccccc2)n1` [Compound 1046, N-[(6-amino-2-pyridyl)sulfonyl]-6-tert-butyl-2-phenoxy-pyridine-3-carboxamide], the EC30 result was “++ (“++” means between 3 uM and 10 uM)”.

For `Cc1cc(Cl)cc(-c2cnc(N3CC(C)CC3(C)C)c(C(=O)NS(=O)(=O)c3cccc(N)n3)c2)c1` (stereo not shown) [Compound 1963, N-[(6-amino-2-pyridyl)sulfonyl]-5-(3-chloro-5-methyl-phenyl)-2-(2,2,4-trimethylpyrrolidin-1-yl)pyridine-3-carboxamide], the EC30 result was “+++ (“+++” means <3 uM)”.

For the compound `CCOc1cc(C)cc(-c2cnc(N3CC(C)CC3(C)C)c(C(=O)NS(=O)(=O)c3cccc(N)n3)c2)c1` (stereo not shown) [Compound 1843, N-[(6-amino-2-pyridyl)sulfonyl]-5-(3-ethoxy-5-methyl-phenyl)-2-(2,2,4-trimethylpyrrolidin-1-yl)pyridine-3-carboxamide], the EC30 entry is “+++ (“+++” means <3 uM)”.

In the case of `C[C@@H]1CN(c2nc(-c3cc(O)cc(F)c3)ccc2C(=O)NS(=O)(=O)c2cccc(N)n2)C(C)(C)C1` [Compound 1636, N-[(6-amino-2-pyridyl)sulfonyl]-6-(3-fluoro-5-hydroxy-phenyl)-2-[(4S)-2,2,4-trimethylpyrrolidin-1-yl]pyridine-3-carboxamide], the EC30 entry was “++ (“++” means between 3 uM and 10 uM)”.

As to `Cc1cccc(C)c1Oc1nc(C(C)(C)C)ccc1C(=O)NS(=O)(=O)c1cccc(N)n1` [Compound 1243, N-[(6-amino-2-pyridyl)sulfonyl]-6-tert-butyl-2-(2,6-dimethylphenoxy)pyridine-3-carboxamide], the EC30 entry is “+++ (“+++” means <3 uM)”.

Take `Cc1cc(C)c(Oc2nc(C3CCCCC3)ccc2C(=O)NS(=O)(=O)c2ccc[nH]c2=O)c(C)c1` [Compound 1357, 6-cyclohexyl-N-[(2-oxo-1H-pyridin-3-yl)sulfonyl]-2-(2,4,6-trimethylphenoxy)pyridine-3-carboxamide]: the EC30 entry is listed as “+++ (“+++” means <3 uM)”.

As for `CC1CN(c2ncccc2C(=O)NS(=O)(=O)c2cccc(OCc3ccc(F)cc3Cl)n2)C(C)(C)C1` (stereo not shown) [Compound 1899, N—[[6-[(2-chloro-4-fluoro-phenyl)methoxy]-2-pyridyl]sulfonyl]-2-(2,2,4-trimethylpyrrolidin-1-yl)pyridine-3-carboxamide], the EC30 result is “+++ (“+++” means <3 uM)”.

In the case of `CC1CN(c2ncccc2C(=O)NS(=O)(=O)c2cccc(Oc3cccc(C(C)(C)C)c3)n2)C(C)(C)C1` (stereo not shown) [Compound 1926, N—[[6-(3-tert-butylphenoxy)-2-pyridyl]sulfonyl]-2-(2,2,4-trimethylpyrrolidin-1-yl)pyridine-3-carboxamide], the EC30 entry is on record as “+++ (“+++” means <3 uM)”.
